Experimental data as given in ChEMBL document CHEMBL1201862, “PubChem BioAssay data set” (2004).
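Following 48 hours of exposure in 96-well plates, responses at five concentrations were used to interpolate endpoints linearly. At the GI50, growth is halved.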 Calls of active or inactive are those of the source. No stated cut-off is given here; in the data, active = GI50 up to about 1.1 µM and inactive = higher.

How the values were obtained:
Assay in all cases: inhibition of tumour cell growth, NCI panel, 48 h
SK-MEL-28 = test system: SK-MEL-28
A549 = test system: A549
MCF7 = test system: MCF7
OVCAR-5 = test system: OVCAR-5
HOP-92 = test system: HOP-92
SNB-75 = test system: SNB-75
MOLT-4 = test system: MOLT-4
Hs-578T = test system: Hs-578T
SNB-19 = test system: SNB-19
NCI-H522 = test system: NCI-H522
NCI-H226 = test system: NCI-H226
COLO 205 = test system: COLO 205
SF-268 = test system: SF-268
SK-MEL-2 = test system: SK-MEL-2
OVCAR-4 = test system: OVCAR-4
NCI-H23 = test system: NCI-H23
IGROV-1 = test system: IGROV-1
M14 = test system: M14
T47D = test system: T47D
HOP-62 = test system: HOP-62
786-0 = test system: 786-0
ACHN = test system: ACHN
SR = test system: SR
DU-145 = test system: DU-145
CAKI-1 = test system: CAKI-1
K562 = test system: K562
SK-OV-3 = test system: SK-OV-3
SN12C = test system: SN12C
SF-295 = test system: SF-295
SF-539 = test system: SF-539
KM12 = test system: KM12
TK-10 = test system: TK-10
CCRF-CEM = test system: CCRF-CEM
HCC 2998 = test system: HCC 2998
NCI/ADR-RES = test system: NCI/ADR-RES
UO-31 = test system: UO-31
RPMI-8226 = test system: RPMI-8226
EKVX = test system: EKVX
SW-620 = test system: SW-620
MDA-MB-231 = test system: MDA-MB-231
RXF 393 = test system: RXF 393
LOX IMVI = test system: LOX IMVI
OVCAR-8 = test system: OVCAR-8
OVCAR-3 = test system: OVCAR-3
U-251 = test system: U-251
UACC-62 = test system: UACC-62
PC-3 = test system: PC-3
MDA-MB-435 = test system: MDA-MB-435
HT-29 = test system: HT-29
A498 = test system: A498
Malme-3M = test system: Malme-3M
SK-MEL-5 = test system: SK-MEL-5
NCI-H460 = test system: NCI-H460
HCT-15 = test system: HCT-15
HL-60 = test system: HL-60
UACC-257 = test system: UACC-257
HCT-116 = test system: HCT-116
BT-549 = test system: BT-549
MDA-N = test system: MDA-N

**Q.** How did the GI50 (SK-MEL-28) turn out when COc1cc2c(cc1OCCCCOc1cc(-c3ccc(F)cc3)nc(C)n1)N=C[C@@H]1CCCN1C2=O was run?
**A.** 982 nM (active)

**Q.** And the GI50 (A549)?
**A.** 1150 nM (inactive)

**Q.** What about the GI50 (MCF7) of the same compound?
**A.** 502 nM (active)

**Q.** What about the GI50 (OVCAR-5) of the same compound?
**A.** 272 nM (active)

**Q.** What about the GI50 (HOP-92) of the same compound?
**A.** 443 nM (active)

**Q.** And the GI50 (SNB-75)?
**A.** 723 nM (active)

**Q.** And the GI50 (MOLT-4)?
**A.** 108 nM (active)

**Q.** And the GI50 (Hs-578T)?
**A.** 1050 nM (active)

**Q.** And the GI50 (SNB-19)?
**A.** 689 nM (active)

**Q.** And the GI50 (NCI-H522)?
**A.** 212 nM (active)

**Q.** What about the GI50 (NCI-H226) of the same compound?
**A.** 1050 nM (active)

**Q.** And the GI50 (COLO 205)?
**A.** 346 nM (active)

**Q.** What about the GI50 (SF-268) of the same compound?
**A.** 771 nM (active)

**Q.** What about the GI50 (SK-MEL-2) of the same compound?
**A.** 853 nM (active)

**Q.** And the GI50 (OVCAR-4)?
**A.** 260 nM (active)

**Q.** And the GI50 (NCI-H23)?
**A.** 468 nM (active)

**Q.** And the GI50 (IGROV-1)?
**A.** 731 nM (active)

**Q.** What about the GI50 (M14) of the same compound?
**A.** 678 nM (active)

**Q.** What about the GI50 (T47D) of the same compound?
**A.** 294 nM (active)

**Q.** What about the GI50 (HOP-62) of the same compound?
**A.** 451 nM (active)

**Q.** And the GI50 (786-0)?
**A.** 486 nM (active)

**Q.** And the GI50 (ACHN)?
**A.** 189 nM (active)

**Q.** What about the GI50 (SR) of the same compound?
**A.** 160 nM (active)

**Q.** And the GI50 (DU-145)?
**A.** 225 nM (active)

**Q.** And the GI50 (CAKI-1)?
**A.** 313 nM (active)

**Q.** What about the GI50 (K562) of the same compound?
**A.** 267 nM (active)

**Q.** What about the GI50 (SK-OV-3) of the same compound?
**A.** 3190 nM (inactive)

**Q.** What about the GI50 (SN12C) of the same compound?
**A.** 796 nM (active)

**Q.** And the GI50 (SF-295)?
**A.** 303 nM (active)

**Q.** And the GI50 (SF-539)?
**A.** 927 nM (active)

**Q.** And the GI50 (KM12)?
**A.** 728 nM (active)

**Q.** What about the GI50 (TK-10) of the same compound?
**A.** 224 nM (active)

**Q.** What about the GI50 (CCRF-CEM) of the same compound?
**A.** 135 nM (active)

**Q.** What about the GI50 (HCC 2998) of the same compound?
**A.** 29 nM (active)

**Q.** What about the GI50 (NCI/ADR-RES) of the same compound?
**A.** 450 nM (active)

**Q.** And the GI50 (UO-31)?
**A.** 500 nM (active)

**Q.** And the GI50 (RPMI-8226)?
**A.** 51.9 nM (active)

**Q.** What about the GI50 (EKVX) of the same compound?
**A.** 1660 nM (inactive)

**Q.** What about the GI50 (SW-620) of the same compound?
**A.** 855 nM (active)

**Q.** And the GI50 (MDA-MB-231)?
**A.** 1040 nM (active)

**Q.** What about the GI50 (RXF 393) of the same compound?
**A.** 429 nM (active)

**Q.** What about the GI50 (LOX IMVI) of the same compound?
**A.** 166 nM (active)

**Q.** What about the GI50 (OVCAR-8) of the same compound?
**A.** 989 nM (active)

**Q.** What about the GI50 (OVCAR-3) of the same compound?
**A.** 336 nM (active)

**Q.** And the GI50 (U-251)?
**A.** 200 nM (active)

**Q.** And the GI50 (UACC-62)?
**A.** 378 nM (active)

**Q.** What about the GI50 (PC-3) of the same compound?
**A.** 759 nM (active)

**Q.** What about the GI50 (MDA-MB-435) of the same compound?
**A.** 652 nM (active)

**Q.** What about the GI50 (HT-29) of the same compound?
**A.** 442 nM (active)

**Q.** What about the GI50 (A498) of the same compound?
**A.** 1010 nM (active)

**Q.** What about the GI50 (Malme-3M) of the same compound?
**A.** 820 nM (active)

**Q.** What about the GI50 (SK-MEL-5) of the same compound?
**A.** 593 nM (active)

**Q.** And the GI50 (NCI-H460)?
**A.** 413 nM (active)

**Q.** What about the GI50 (HCT-15) of the same compound?
**A.** 701 nM

**Q.** And the GI50 (HL-60)?
**A.** 279 nM (active)

**Q.** What about the GI50 (UACC-257) of the same compound?
**A.** 692 nM (active)

**Q.** And the GI50 (HCT-116)?
**A.** 838 nM (active)

**Q.** What about the GI50 (BT-549) of the same compound?
**A.** 579 nM (active)

**Q.** What does the source list for O=c1oc2cc(O)ccc2cc1-c1nc2ccccc2s1?
**A.** GI50 (SK-MEL-28): 65.6 nM (active); GI50 (A549): 19100 nM (inactive); GI50 (MCF7): 23900 nM (inactive); GI50 (OVCAR-5): 30800 nM (inactive); GI50 (HOP-92): 27700 nM (inactive); GI50 (MOLT-4): 678 nM (active); GI50 (SNB-19): 30800 nM (inactive); GI50 (COLO 205): 109 nM (active); GI50 (SK-MEL-2): 21800 nM (inactive); GI50 (OVCAR-4): 28200 nM (inactive); GI50 (NCI-H23): 21100 nM (inactive); GI50 (IGROV-1): 35400 nM (inactive); GI50 (MDA-N): 19100 nM (inactive); GI50 (M14): 24500 nM (inactive); GI50 (T47D): 31300 nM (inactive); GI50 (HOP-62): 20900 nM (inactive); GI50 (786-0): 22800 nM (inactive); GI50 (ACHN): 22500 nM (inactive); GI50 (SR): 25800 nM (inactive); GI50 (DU-145): 29200 nM (inactive); GI50 (CAKI-1): 22900 nM (inactive); GI50 (K562): 7410 nM (inactive); GI50 (SK-OV-3): 38800 nM (inactive); GI50 (SN12C): 21800 nM (inactive); GI50 (SF-295): 54100 nM (inactive); GI50 (SF-539): 24700 nM (inactive); GI50 (KM12): 42300 nM (inactive); GI50 (TK-10): 30100 nM (inactive); GI50 (CCRF-CEM): 10400 nM (inactive); GI50 (HCC 2998): 27500 nM (inactive); GI50 (NCI/ADR-RES): 18700 nM (inactive); GI50 (UO-31): 16400 nM (inactive); GI50 (RPMI-8226): 11500 nM (inactive); GI50 (EKVX): 27200 nM (inactive); GI50 (SW-620): 12200 nM (inactive); GI50 (MDA-MB-231): 23700 nM (inactive); GI50 (RXF 393): 31700 nM (inactive); GI50 (LOX IMVI): 25900 nM (inactive); GI50 (OVCAR-8): 34700 nM (inactive); GI50 (OVCAR-3): 16300 nM (inactive); GI50 (U-251): 23000 nM (inactive); GI50 (UACC-62): 7210 nM (inactive); GI50 (PC-3): 22800 nM (inactive); GI50 (MDA-MB-435): 27300 nM (inactive); GI50 (HT-29): 29000 nM (inactive); GI50 (A498): 19600 nM (inactive); GI50 (SK-MEL-5): 11100 nM (inactive); GI50 (NCI-H460): 21200 nM (inactive); GI50 (HCT-15): 20100 nM; GI50 (HL-60): 16100 nM (inactive); GI50 (UACC-257): 22600 nM (inactive); GI50 (HCT-116): 21800 nM (inactive); GI50 (BT-549): 16900 nM (inactive)
